The numbers were not newly measured in US7655374B2, “Fixing liquid, toner fixing method and apparatus, and image forming method and apparatus” (Ricoh Company, Ltd., priority 2005, dated 2010), which cites them from elsewhere.

For this series the following is noted: acute oral toxicity; species not given.
As for `CCCCCCCCCCCC` [n-dodecane], the LD50 is greater than 5000 mg/kg.
`CCCCOC(=O)CCCCCCCCC(=O)OCCCC` [dibutyl sebacate]: the LD50 is 14900 mg/kg.
Regarding diethoxyethyl sebacate, the LD50 is greater than 5000 mg/kg.
For `CC(C)COC(=O)CCCCC(=O)OCC(C)C` [diisobutyl adipate], the LD50 is 12300 mg/kg.
For the molecule `CCCCCCCCCCCC(=O)OCC` [ethyl laurate], the LD50 is 3000 mg/kg.

In general, LD50 refers to the dose at which mortality reaches 50%.
